Source: ChEMBL document CHEMBL3885881, “DrugMatrix”

Species on record: Rattus norvegicus
Experiment: DrugMatrix - Regimen: Daily Repeat
Assay type: toxicity, organism-based, Sprague-Dawley
Design: regimen Daily Repeat, gender Male, age 6-8 weeks
Details: in vivo, po, route oral GAVAGE, […]; for ABSOLUTE BASOPHIL / ABSOLUTE EOSINOPHIL / ABSOLUTE LYMPHOCYTE / ABSOLUTE MONOCYTE / ABSOLUTE SEGMENTED NEUTROPHIL / BASOPHIL / EOSINOPHIL / ERYTHROCYTE COUNT / HEMATOCRIT / HEMOGLOBIN / LEUKOCYTE COUNT / LYMPHOCYTE / MEAN CORPUSCULAR HEMOGLOBIN / MEAN CORPUSCULAR HEMOGLOBIN CONCENTRATION / MEAN CORPUSCULAR VOLUME / MONOCYTE / NEUTROPHIL / NUCLEATED RED BLOOD CELLS / PLATELET COUNT: tissue Blood; for ALANINE AMINOTRANSFERASE / ALBUMIN / ALKALINE PHOSPHATASE / ASPARTATE AMINOTRANSFERASE / BLOOD UREA NITROGEN / CARBON DIOXIDE / CHLORIDE / CHOLESTEROL / CREATINE PHOSPHOKINASE / CREATININE / GLUCOSE / LACTATE DEHYDROGENASE / LIPASE / PHOSPHORUS / SODIUM / TOTAL BILIRUBIN / TOTAL PROTEIN / URIC ACID: tissue Plasma
[1] = 450 mg/kg, 120 h, dose level Low, time 5 day
[2] = 1500 mg/kg, 72 h, dose level High, time 3 day
[3] = 1500 mg/kg, 120 h, dose level High, time 5 day

## CC[C@H](C)C(=O)O[C@H]1C[C@@H](C)C=C2C=C[C@H](C)[C@H](CC[C@@H]3C[C@@H](O)CC(=O)O3)[C@H]21 [LOVASTATIN]
[1]
  ABSOLUTE BASOPHIL: 0 CELLS/uL
  ABSOLUTE EOSINOPHIL: 0 CELLS/uL
  ABSOLUTE LYMPHOCYTE: 8158 CELLS/uL
  ABSOLUTE MONOCYTE: 134 CELLS/uL
  ABSOLUTE SEGMENTED NEUTROPHIL: 1208 CELLS/uL
  BASOPHIL: 0%
  EOSINOPHIL: 0%
  ERYTHROCYTE COUNT: 6.46 x10E6/uL
  HEMATOCRIT: 40.17%
  HEMOGLOBIN: 15.27 G/DL
  LEUKOCYTE COUNT: 9.5 x10E3/uL
  LYMPHOCYTE: 86%
  MEAN CORPUSCULAR HEMOGLOBIN: 23.63 pg
  MEAN CORPUSCULAR HEMOGLOBIN CONCENTRATION: 38.03 G/DL
  MEAN CORPUSCULAR VOLUME: 62.2 fL
  MONOCYTE: 1.33%
  NEUTROPHIL: 12.67%
  NUCLEATED RED BLOOD CELLS: 0 /100WBC
  PLATELET COUNT: 1425.67 x10E3/uL
  ALANINE AMINOTRANSFERASE: 153 u/L
  ALBUMIN: 4.83 G/DL
  ALKALINE PHOSPHATASE: 635.67 u/L
  ASPARTATE AMINOTRANSFERASE: 360.33 u/L
  BLOOD UREA NITROGEN: 15.33 mg/dL
  CARBON DIOXIDE: 35.67 mmol/L
  CHLORIDE: 100.5 MEQ/L
  CHOLESTEROL: 28.67 mg/dL
  CREATINE PHOSPHOKINASE: 410.33 u/L
  CREATININE: 0.31 mg/dL
  GLUCOSE: 137.33 mg/dL
  LACTATE DEHYDROGENASE: 182.33 u/L
  LIPASE: 15.33 u/L
  PHOSPHORUS: 8.7 mg/dL
  SODIUM: 145.2 MEQ/L
  TOTAL BILIRUBIN: 0.23 mg/dL
  TOTAL PROTEIN: 6.1 G/DL
  URIC ACID: 0.5 mg/dL
[2]
  ABSOLUTE BASOPHIL: 0 CELLS/uL
  ABSOLUTE EOSINOPHIL: 21.67 CELLS/uL
  ABSOLUTE LYMPHOCYTE: 6143.33 CELLS/uL
  ABSOLUTE MONOCYTE: 201 CELLS/uL
  ABSOLUTE SEGMENTED NEUTROPHIL: 2134 CELLS/uL
  BASOPHIL: 0%
  EOSINOPHIL: 0.33%
  ERYTHROCYTE COUNT: 5.62 x10E6/uL
  HEMATOCRIT: 35.1%
  HEMOGLOBIN: 13.97 G/DL
  LEUKOCYTE COUNT: 8.5 x10E3/uL
  LYMPHOCYTE: 72%
  MEAN CORPUSCULAR HEMOGLOBIN: 24.9 pg
  MEAN CORPUSCULAR HEMOGLOBIN CONCENTRATION: 39.83 G/DL
  MEAN CORPUSCULAR VOLUME: 62.5 fL
  MONOCYTE: 2.33%
  NEUTROPHIL: 25.33%
  NUCLEATED RED BLOOD CELLS: 0 /100WBC
  PLATELET COUNT: 1031.67 x10E3/uL
  ALANINE AMINOTRANSFERASE: 318 u/L
  ALBUMIN: 4.3 G/DL
  ALKALINE PHOSPHATASE: 538.67 u/L
  ASPARTATE AMINOTRANSFERASE: 602.33 u/L
  BLOOD UREA NITROGEN: 15.33 mg/dL
  CARBON DIOXIDE: 30.33 mmol/L
  CHLORIDE: 98 MEQ/L
  CHOLESTEROL: 50 mg/dL
  CREATINE PHOSPHOKINASE: 490 u/L
  CREATININE: 0.37 mg/dL
  GLUCOSE: 141.67 mg/dL
  LACTATE DEHYDROGENASE: 851.33 u/L
  LIPASE: 10.33 u/L
  PHOSPHORUS: 10.3 mg/dL
  SODIUM: 142.63 MEQ/L
  TOTAL BILIRUBIN: 0.1 mg/dL
  TOTAL PROTEIN: 5.53 G/DL
  URIC ACID: 0.7 mg/dL
[3]
  ABSOLUTE BASOPHIL: 0 CELLS/uL
  ABSOLUTE EOSINOPHIL: 0 CELLS/uL
  ABSOLUTE LYMPHOCYTE: 8899 CELLS/uL
  ABSOLUTE MONOCYTE: 314.33 CELLS/uL
  ABSOLUTE SEGMENTED NEUTROPHIL: 2320 CELLS/uL
  BASOPHIL: 0%
  EOSINOPHIL: 0%
  ERYTHROCYTE COUNT: 6.78 x10E6/uL
  HEMATOCRIT: 41.27%
  HEMOGLOBIN: 15.53 G/DL
  LEUKOCYTE COUNT: 11.53 x10E3/uL
  LYMPHOCYTE: 76%
  MEAN CORPUSCULAR HEMOGLOBIN: 22.93 pg
  MEAN CORPUSCULAR HEMOGLOBIN CONCENTRATION: 37.63 G/DL
  MEAN CORPUSCULAR VOLUME: 60.93 fL
  MONOCYTE: 2.67%
  NEUTROPHIL: 21.33%
  NUCLEATED RED BLOOD CELLS: 0 /100WBC
  PLATELET COUNT: 1526.33 x10E3/uL
  ALANINE AMINOTRANSFERASE: 234.33 u/L
  ALBUMIN: 4.7 G/DL
  ALKALINE PHOSPHATASE: 440.67 u/L
  ASPARTATE AMINOTRANSFERASE: 648.33 u/L
  BLOOD UREA NITROGEN: 17 mg/dL
  CARBON DIOXIDE: 35.67 mmol/L
  CHLORIDE: 100.5 MEQ/L
  CHOLESTEROL: 55.33 mg/dL
  CREATINE PHOSPHOKINASE: 603 u/L
  CREATININE: 0.34 mg/dL
  GLUCOSE: 135 mg/dL
  LACTATE DEHYDROGENASE: 832.33 u/L
  LIPASE: 14.67 u/L
  PHOSPHORUS: 8.5 mg/dL
  SODIUM: 145.6 MEQ/L
  TOTAL BILIRUBIN: 0.2 mg/dL
  TOTAL PROTEIN: 6.33 G/DL
  URIC ACID: 0.63 mg/dL
